Test results published in ChEMBL document CHEMBL4152339, “Design and synthesis of novel 1H-tetrazol-5-amine based potent antimicrobial agents: DNA topoisomerase IV and gyrase affinity evaluation supported by molecular docking studies” (Eur J Med Chem, 2018).
pIC50: −log10 of the molar value. ≈ marks a conversion by molar mass, not a printed value.

Experiments:
[1] = tested on: Bacillus cereus; assay: Antibacterial activity against Bacillus cereus ATCC 11778 after 18 hrs by CLSI disc diffusion method; format: functional; settings: ATCC 11778, 18 h
[2] = tested on: Pseudomonas aeruginosa; assay: Antibacterial activity against Pseudomonas aeruginosa ATCC 15442 after 18 hrs by CLSI disc diffusion method; format: functional; settings: ATCC 15442, 18 h
[3] = tested on: Enterococcus faecalis; assay: Antibacterial activity against Enterococcus faecalis ATCC 29212 after 18 hrs by CLSI disc diffusion method; format: functional; settings: ATCC 29212, 18 h
[4] = tested on: Escherichia coli; assay: Antibacterial activity against Escherichia coli ATCC 10538 after 18 hrs by CLSI disc diffusion method; format: functional; settings: ATCC 10538, 18 h
[5] = tested on: Pseudomonas aeruginosa; assay: Antibacterial activity against Pseudomonas aeruginosa ATCC 27853 after 18 hrs by CLSI disc diffusion method; format: functional; settings: ATCC 27853, 18 h
[6] = Selectivity index, ratio of IC50 for human HaCaT cells to MIC for Escherichia coli ATCC 10538; format: toxicity; settings: read-out: Selectivity Index
[7] = tested on: Staphylococcus aureus; assay: Antibacterial activity against Staphylococcus aureus ATCC 25923 after 18 hrs by CLSI disc diffusion method; format: functional; settings: ATCC 25923, 18 h
[8] = Selectivity index, ratio of IC50 for human HaCaT cells to MIC for Bacillus subtilis ATCC 6633; format: toxicity; settings: read-out: Selectivity Index
[9] = tested on: Micrococcus luteus; assay: Antibacterial activity against Micrococcus luteus ATCC 9341 after 18 hrs by CLSI disc diffusion method; format: functional; settings: ATCC 9341, 18 h
[10] = tested on: Staphylococcus aureus; assay: Antibacterial activity against Staphylococcus aureus ATCC 6538 after 18 hrs by CLSI disc diffusion method; format: functional; settings: ATCC 6538, 18 h
[11] = Selectivity index, ratio of IC50 for human HaCaT cells to MIC for Staphylococcus aureus NCTC 4163; format: toxicity; settings: read-out: Selectivity Index
[12] = tested on: Proteus vulgaris; assay: Antibacterial activity against Proteus vulgaris NCTC 4635 after 18 hrs by CLSI disc diffusion method; format: functional; settings: NCTC 4635, 18 h
[13] = tested on: Staphylococcus epidermidis; assay: Antibacterial activity against Staphylococcus epidermidis ATCC 35984 after 18 hrs by CLSI […] method; format: functional; settings: ATCC 35984, 18 h
[14] = tested on: HaCaT; assay: Cytotoxicity activity against human HaCaT cells assessed as reduction in cell viability after 72 hrs by MTT assay; format: cell-based
[15] = tested on: Staphylococcus epidermidis; assay: Antibacterial activity against Staphylococcus epidermidis ATCC 12228 after 18 hrs by CLSI disc diffusion method; format: functional; settings: ATCC 12228, 18 h
[16] = tested on: Staphylococcus aureus; assay: Antibacterial activity against Staphylococcus aureus NCTC 4163 after 18 hrs by CLSI disc diffusion method; format: functional; settings: NCTC 4163, 18 h
[17] = Selectivity index, ratio of IC50 for human HaCaT cells to MIC for Bordetella bronchiseptica ATCC 4617; format: toxicity; settings: read-out: Selectivity Index
[18] = Selectivity index, ratio of IC50 for human HaCaT cells to MIC for Proteus vulgaris NCTC 4635; format: toxicity; settings: read-out: Selectivity Index
[19] = tested on: Bacillus spizizenii; assay: Antibacterial activity against Bacillus subtilis ATCC 6633 after 18 hrs by CLSI disc diffusion method; format: functional; settings: ATCC 6633, 18 h
[20] = tested on: Bordetella bronchiseptica; assay: Antibacterial activity against Bordetella bronchiseptica ATCC 4617 after 18 hrs by CLSI disc diffusion method; format: functional; settings: ATCC 4617, 18 h
[21] = tested on: Micrococcus luteus; assay: Antibacterial activity against Micrococcus luteus ATCC 10240 after 18 hrs by CLSI disc diffusion method; format: functional; settings: ATCC 10240, 18 h
[22] = tested on: A549; assay: Cytotoxicity activity against human A549 cells assessed as reduction in cell viability after 72 hrs by MTT assay; format: cell-based; settings: A549, 72 h
[23] = tested on: Enterococcus hirae; assay: Antibacterial activity against Enterococcus hirae ATCC 10541 after 18 hrs by CLSI disc diffusion method; format: functional; settings: ATCC 10541, 18 h
[24] = Selectivity index, ratio of IC50 for human HaCaT cells to MIC for Micrococcus luteus ATCC 10240; format: toxicity; settings: read-out: Selectivity Index
[25] = Selectivity index, ratio of IC50 for human HaCaT cells to MIC for Enterococcus hirae ATCC 10541; format: toxicity; settings: read-out: Selectivity Index

Row | MIC [1] [µM] | MIC [2] [µM] | MIC [3] [µM] | MIC [4] [µM] | MIC [5] [µM] | MIC [7] [µM] | MIC [9] [µM] | MIC [10] [µM] | MIC [12] [µM] | MIC [13] [µM] | MIC [15] [µM] | MIC [16] [µM] | MIC [19] [µM] | MIC [20] [µM] | Compound | selectivity ratio [6] | selectivity ratio [8] | selectivity ratio [11] | pIC50 [14] | selectivity ratio [17] | selectivity ratio [18] | other results
1 | 29 (≈ 8.14 µg/mL) | 914 (≈ 257 µg/mL) | 114 (≈ 32 µg/mL) | 57 (≈ 16 µg/mL) | > 914 | 29 (≈ 8.14 µg/mL) | 57 (≈ 16 µg/mL) | 14 (≈ 3.93 µg/mL) | 57 (≈ 16 µg/mL) | 14 (≈ 3.93 µg/mL) | 29 (≈ 8.14 µg/mL) | 14 (≈ 3.93 µg/mL) | 57 (≈ 16 µg/mL) | > 914 | Fc1ccc(-n2nnnc2Nn2cnnc2)cc1Cl | 1.08 | 1.08 | 4.42 | 4.21 | 0.07 | 1.08 | MIC [21]: 57 µM (≈ 16 µg/mL); pIC50 [22]: 4.22; MIC [23]: 29 µM (≈ 8.14 µg/mL); selectivity ratio [24]: 1.08; selectivity ratio [25]: 2.13
2 | 29 (≈ 7.92 µg/mL) | 938 (≈ 256 µg/mL) | 234 (≈ 63.9 µg/mL) | 117 (≈ 32 µg/mL) | 938 (≈ 256 µg/mL) | 7 (≈ 1.91 µg/mL) | 59 (≈ 16.1 µg/mL) | 7 (≈ 1.91 µg/mL) | 117 (≈ 32 µg/mL) | 4 (≈ 1.09 µg/mL) | 4 (≈ 1.09 µg/mL) | 7 (≈ 1.91 µg/mL) | 29 (≈ 7.92 µg/mL) | 117 (≈ 32 µg/mL) | O=[N+]([O-])c1ccc(-n2nnnc2Nn2cnnc2)cc1 | 0.55 | 2.24 | 9.28 | 4.19 | 0.55 | 0.55 | MIC [21]: 59 µM (≈ 16.1 µg/mL); pIC50 [22]: 4.22; MIC [23]: 29 µM (≈ 7.92 µg/mL); selectivity ratio [24]: 1.1; selectivity ratio [25]: 2.24
3 | 65 (≈ 16 µg/mL) | 1040 (≈ 256 µg/mL) | 8 (≈ 1.97 µg/mL) | 16 (≈ 3.94 µg/mL) | 1040 (≈ 256 µg/mL) | 65 (≈ 16 µg/mL) | 2 (≈ 0.492 µg/mL) | 33 (≈ 8.12 µg/mL) | 8 (≈ 1.97 µg/mL) | 16 (≈ 3.94 µg/mL) | 33 (≈ 8.12 µg/mL) | 65 (≈ 16 µg/mL) | 65 (≈ 16 µg/mL) | 130 (≈ 32 µg/mL) | Fc1ccc(-n2nnnc2Nn2cnnc2)cc1 | 1.47 | 1.29 | 1.29 | 4.08 | 0.09 | 1.47 | MIC [21]: 2 µM (≈ 0.492 µg/mL); pIC50 [22]: 4.10; MIC [23]: 65 µM (≈ 16 µg/mL); selectivity ratio [24]: 1.47; selectivity ratio [25]: 2.89
4 | 26 (≈ 7.98 µg/mL) | 834 (≈ 256 µg/mL) | 52 (≈ 16 µg/mL) | 52 (≈ 16 µg/mL) | 834 (≈ 256 µg/mL) | 52 (≈ 16 µg/mL) | 26 (≈ 7.98 µg/mL) | 52 (≈ 16 µg/mL) | 13 (≈ 3.99 µg/mL) | 13 (≈ 3.99 µg/mL) | 26 (≈ 7.98 µg/mL) | 52 (≈ 16 µg/mL) | 26 (≈ 7.98 µg/mL) | 209 (≈ 64.2 µg/mL) | Brc1ccc(-n2nnnc2Nn2cnnc2)cc1 | 1.25 | 2.5 | 1.25 | 4.19 | 0.31 | 5 | MIC [21]: 26 µM (≈ 7.98 µg/mL); pIC50 [22]: 4.21; MIC [23]: 52 µM (≈ 16 µg/mL); selectivity ratio [24]: 2.5; selectivity ratio [25]: 1.25
